Experimental data as given in patent US10526327B2, “Histone demethylase inhibitors” (CELGENE QUANTICEL RESEARCH, INC., priority 2013, dated 2020).

Tests used:
Jarid1B = biological target: T1, Jarid1B (Homo sapiens, UniProt Q9UGL1); experiment: Jarid1B in vitro enzyme inhibition assay (TR-FRET); format: biochemical
T1 construct: purchased BPS Bioscience or custom made by MolecularThroughput 50121
T1 sequence (Q9UGL1 2-751): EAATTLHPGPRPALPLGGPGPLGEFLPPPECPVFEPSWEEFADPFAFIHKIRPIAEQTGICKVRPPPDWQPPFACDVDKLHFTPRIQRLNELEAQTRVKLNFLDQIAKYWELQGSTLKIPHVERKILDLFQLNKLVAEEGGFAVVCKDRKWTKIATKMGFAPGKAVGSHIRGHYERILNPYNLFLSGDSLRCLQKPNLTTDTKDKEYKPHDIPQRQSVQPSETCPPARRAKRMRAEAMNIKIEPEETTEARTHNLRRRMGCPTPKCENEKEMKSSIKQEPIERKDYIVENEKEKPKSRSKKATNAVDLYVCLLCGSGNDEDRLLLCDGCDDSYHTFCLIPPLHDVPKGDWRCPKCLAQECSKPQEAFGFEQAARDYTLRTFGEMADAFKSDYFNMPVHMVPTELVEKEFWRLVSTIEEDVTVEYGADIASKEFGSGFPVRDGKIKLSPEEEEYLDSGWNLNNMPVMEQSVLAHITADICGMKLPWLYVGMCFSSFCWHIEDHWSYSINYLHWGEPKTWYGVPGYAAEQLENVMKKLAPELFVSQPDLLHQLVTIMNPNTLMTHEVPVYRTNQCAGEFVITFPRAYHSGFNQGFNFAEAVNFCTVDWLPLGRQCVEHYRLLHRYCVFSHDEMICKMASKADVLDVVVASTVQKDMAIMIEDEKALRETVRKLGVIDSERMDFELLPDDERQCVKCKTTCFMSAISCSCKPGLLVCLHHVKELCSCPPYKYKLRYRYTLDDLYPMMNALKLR
Excerpt: (§1) This assay determines the ability of a test compound to inhibit Jarid1A, Jarid1B, and JMJD2C demethylase activity. Baculovirus expressed Jarid1A (GenBank Accession #NM_001042603, AA1-1090) was purchased from BPS Bioscience (Cat#50110). Baculovirus expressed Jarid1B (GenBank Accession #NM_006618, AA 2-751) was purchased from BPS Bioscience (Cat #50121) or custom made by MolecularThroughput. Baculovirus expressed JMJD2C (GenBank Accession #BC143571, AA 2-372) was purchased from BPS Bioscience (Cat#50105).
The ability of test compounds to inhibit the activity of Jarid1B was determined in 384-well plate format under the following reaction conditions: 0.8 nM Jarid1B, 300 nM H3K4me3-biotin labeled peptide (Anaspec cat #64357), 2 μM alpha-ketoglutaric acid in assay buffer of 50 mM HEPES, pH7.3, 0.005% Brij35, 0.5 mM TCEP, 0.2 mg/ml BSA, 50 μM sodium L-ascorbate, and 2 μM ammonium iron(II) sulfate. Reaction product was determined quantitatively by TR-FRET after the addition of detection reagent Phycolink Streptavidin-allophycocyanin (Prozyme) and Europium-anti-mono-or di-methylated histone H3 lysine 4 (H3K4me1-2) antibody (PerkinElmer) in the presence of 5 mM EDTA in LANCE detection buffer (PerkinElmer) at a final concentration of 25 nM and 1 nM, respectively.
(§2) The assay reaction was initiated by the following: 2 μl of the mixture of 900 nM H3K4me3-biotin labeled peptide and 6 μM alpha-ketoglutaric acid with 2 μl of 11-point serial diluted inhibitor in 3% DMSO was added to each well of the plate, followed by the addition of 2 μl of 2.4 nM Jarid1B to initiate the reaction. The reaction mixture was incubated at room temperature for 30 minutes, and terminated by the addition of 6 μl of 5 mM EDTA in LANCE detection buffer containing 50 nM Phycolink Streptavidin-allophycocyanin and 2 nM Europium-anti-H3K4me1-2 antibody. Plates were read by EnVisionMultilabel Reader in TR-FRET mode (excitation at 320 nm, emission at 615 nm and 665 nm) after 1 hour incubation at room temperature. A ratio was calculated (665/615) for each well and fitted to determine inhibition constant (IC50).

JMJD2C = biological target: T2, JMJD2C (Homo sapiens, UniProt Q9H3R0); experiment: JMJD2C in vitro enzyme inhibition assay (TR-FRET); format: biochemical
T2 construct: purchased BPS Bioscience 50105
T2 sequence (Q9H3R0 2-372): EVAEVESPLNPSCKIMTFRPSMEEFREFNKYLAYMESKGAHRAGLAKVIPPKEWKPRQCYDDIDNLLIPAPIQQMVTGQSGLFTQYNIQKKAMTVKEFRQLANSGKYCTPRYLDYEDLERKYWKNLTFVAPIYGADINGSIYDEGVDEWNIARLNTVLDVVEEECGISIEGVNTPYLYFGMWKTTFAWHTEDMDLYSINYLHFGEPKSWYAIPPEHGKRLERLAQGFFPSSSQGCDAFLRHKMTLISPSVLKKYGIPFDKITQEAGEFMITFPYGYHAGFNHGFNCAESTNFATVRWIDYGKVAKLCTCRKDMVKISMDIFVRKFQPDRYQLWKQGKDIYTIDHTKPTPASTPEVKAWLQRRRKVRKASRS
Excerpt: as §1
The ability of test compounds to inhibit the activity of JMJD2C was determined in 384-well plate format under the following reaction conditions: 0.3 nM JMJD2C, 300 nM H3K9me3-biotin labeled peptide (Anaspec cat #64360), 2 μM alpha-ketoglutaric acid in assay buffer of 50 mM HEPES, pH7.3, 0.005% Brij35, 0.5 mM TCEP, 0.2 mg/ml BSA, 50 μM sodium L-ascorbate, and 2 μM ammonium iron(II) sulfate. Reaction product was determined quantitatively by TR-FRET after the addition of detection reagent Phycolink Streptavidin-allophycocyanin (Prozyme) and Europium-anti-di-methylated histone H3 lysine 9 (H3K9me2) antibody (PerkinElmer) in the presence of 5 mM EDTA in LANCE detection buffer (PerkinElmer) at a final concentration of 50 nM and 1 nM, respectively.
as §2, with “nM H3K9me3-biotin” for “nM H3K4me3-biotin”, “DMSO were” for “DMSO was”, “of 0.9” for “of 2.4”, “nM JMJD2C” for “nM Jarid1B”, “containing 100” for “containing 50”, “nM Europium-anti-H3K9me2” for “nM Europium-anti-H3K4me1-2”

| IC50 (Jarid1B) | IC50 (JMJD2C) | SMILES |
| --- | --- | --- |
| 100 to 1000 nM | 100 to 1000 nM | OCCOc1nc(O)c2ccncc2n1 [Example 3, 2-(2-hydroxyethoxy)pyrido[3,4-d]pyrimidin-4-ol] |
| 100 to 1000 nM | 100 to 1000 nM | Oc1nc(OCc2ccccc2)nc2cnccc12 [Example 4, 2-phenylmethoxypyrido[3,4-d]pyrimidin-4-ol] |
| 100 to 1000 nM | 100 to 1000 nM | Oc1nc(OCC2CC2)nc2cnccc12 [Example 5, 2-(cyclopropylmethoxy)-3H-pyrido[3,4-d]pyrimidin-4-one] |
| 100 to 1000 nM | 100 to 1000 nM | Oc1nc(OC2CCCC2)nc2cnccc12 [Example 6, 2-cyclopentyloxy-3H-pyrido[3,4-d]pyrimidin-4-one] |
| 100 to 1000 nM | 100 to 1000 nM | CCCOc1nc(O)c2ccncc2n1 [Example 7, 2-propoxy-3H-pyrido[3,4-d]pyrimidin-4-one] |
| 100 to 1000 nM | 100 to 1000 nM | COc1nc(O)c2ccncc2n1 [Example 8, 2-methoxypyrido[3,4-d]pyrimidin-4-ol] |
| 1000 to 10000 nM | ≤ 100 nM | CCC(C)Oc1nc(O)c2ccncc2n1 (stereo not shown) [Example 9, 2-butan-2-yloxy-3H-pyrido[3,4-d]pyrimidin-4-one] |
| 100 to 1000 nM | 100 to 1000 nM | Oc1nc(OCCOc2ccccc2)nc2cnccc12 [Example 10, 2-(2-phenoxyethoxy)-3H-pyrido[3,4-d]pyrimidin-4-one] |
| 100 to 1000 nM | 100 to 1000 nM | Oc1nc(OCC2CCC2)nc2cnccc12 [Example 11, 2-(cyclobutylmethoxy)-3H-pyrido[3,4-d]pyrimidin-4-one] |
| 100 to 1000 nM | 100 to 1000 nM | Oc1nc(OCC(F)(F)F)nc2cnccc12 [Example 12, 2-(2,2,2-trifluoroethoxy)pyrido[3,4-d]pyrimidin-4-ol] |
| ≤ 100 nM | 100 to 1000 nM | CC(=O)Nc1ccc(Oc2nc(O)c3ccncc3n2)cc1 [Example 35, N-[4-(4-hydroxypyrido[3,4-d]pyrimidin-2-yl)oxyphenyl]acetamide] |
| ≤ 100 nM | 100 to 1000 nM | CC(C)(C)OC(=O)Nc1cccc(Oc2nc(O)c3ccncc3n2)c1 [Example 36, tert-butyl N-[3-(4-hydroxypyrido[3,4-d]pyrimidin-2-yl)oxyphenyl]carbamate] |
| ≤ 100 nM | ≤ 100 nM | Oc1nc(Oc2ccc(F)c(F)c2)nc2cnccc12 [Example 37, 2-(3,4-difluorophenoxy)pyrido[3,4-d]pyrimidin-4-ol] |
| ≤ 100 nM | 100 to 1000 nM | COc1ccc(Oc2nc(O)c3ccncc3n2)cc1OC [Example 38, 2-(3,4-dimethoxyphenoxy)pyrido[3,4-d]pyrimidin-4-ol] |
| ≤ 100 nM | 100 to 1000 nM | CC(C)c1cccc(Oc2nc(O)c3ccncc3n2)c1 [Example 39, 2-(3-propan-2-ylphenoxy)pyrido[3,4-d]pyrimidin-4-ol] |
| ≤ 100 nM | ≤ 100 nM | Oc1nc(Oc2cccc(F)c2)nc2cnccc12 [Example 40, 2-(3-fluorophenoxy)pyrido[3,4-d]pyrimidin-4-ol] |
| ≤ 100 nM | 100 to 1000 nM | Oc1nc(Oc2cccc(Cl)c2)nc2cnccc12 [Example 41, 2-(3-chlorophenoxy)pyrido[3,4-d]pyrimidin-4-ol] |
| 100 to 1000 nM | 100 to 1000 nM | Oc1nc(Oc2cccc(F)c2F)nc2cnccc12 [Example 42, 2-(2,3-difluorophenoxy)pyrido[3,4-d]pyrimidin-4-ol] |
| ≤ 100 nM | 100 to 1000 nM | COc1c(F)cc(Oc2nc(O)c3ccncc3n2)cc1F [Example 43, 2-(3,5-difluoro-4-methoxyphenoxy)pyrido[3,4-d]pyrimidin-4-ol] |
| ≤ 100 nM | 100 to 1000 nM | COc1cccc(Oc2nc(O)c3ccncc3n2)c1 [Example 44, 2-(3-methoxyphenoxy)pyrido[3,4-d]pyrimidin-4-ol] |
| ≤ 100 nM | 100 to 1000 nM | CCOc1c(F)cc(Oc2nc(O)c3ccncc3n2)cc1F [Example 45, 2-(4-ethoxy-3,5-difluorophenoxy)pyrido[3,4-d]pyrimidin-4-ol] |
| 100 to 1000 nM | 100 to 1000 nM | Oc1nc(Oc2ccccc2F)nc2cnccc12 [Example 46, 2-(2-fluorophenoxy)pyrido[3,4-d]pyrimidin-4-ol] |
| ≤ 100 nM | 100 to 1000 nM | Oc1nc(Oc2ccc(F)cc2)nc2cnccc12 [Example 47, 2-(4-fluorophenoxy)pyrido[3,4-d]pyrimidin-4-ol] |
| ≤ 100 nM | ≤ 100 nM | COc1ccc(Oc2nc(O)c3ccncc3n2)cc1 [Example 48, 2-(4-methoxyphenoxy)pyrido[3,4-d]pyrimidin-4-ol] |
| ≤ 100 nM | ≤ 100 nM | Oc1nc(Oc2ccc(Cl)cc2)nc2cnccc12 [Example 49, 2-(4-chlorophenoxy)pyrido[3,4-d]pyrimidin-4-ol] |
| ≤ 100 nM | 100 to 1000 nM | CN(C)c1cccc(Oc2nc(O)c3ccncc3n2)c1 [Example 50, 2-[3-(dimethylamino)phenoxy]pyrido[3,4-d]pyrimidin-4-ol] |
| ≤ 100 nM | 100 to 1000 nM | Oc1nc(Oc2cccc(C(F)(F)F)c2)nc2cnccc12 [Example 52, 2-[3-(trifluoromethyl)phenoxy]pyrido[3,4-d]pyrimidin-4-ol] |
| ≤ 100 nM | 100 to 1000 nM | COc1ccc(Oc2nc(O)c3ccncc3n2)cc1F [Example 53, 2-(3-fluoro-4-methoxyphenoxy)pyrido[3,4-d]pyrimidin-4-ol] |
| ≤ 100 nM | 100 to 1000 nM | CCCn1cc(Oc2nc(O)c3ccncc3n2)cn1 [Example 54, 2-(1-propylpyrazol-4-yl)oxypyrido[3,4-d]pyrimidin-4-ol] |
